According to ChEMBL document CHEMBL1795284, “Total synthesis of racemic and (R) and (S)-4-methoxyalkanoic acids and their antifungal activity” (2011):
Values after ≈ are worked out from the molar mass of the structure shown.

Columns and labels:
Format in all cases: functional
[1] = system: Aspergillus niger; assay: Antifungal activity against Aspergillus niger MTCC 281 after 18 hrs by microtiter broth dilution method; details: MTCC 281, 18 h
[2] = system: Pichia kudriavzevii; assay: Antifungal activity against Issatchenkia orientalis MTCC 3020 after 18 hrs by microtiter broth dilution method; details: MTCC 3020, 18 h
[3] = system: Candida parapsilosis; assay: Antifungal activity against Candida parapsilosis MTCC 1744 after 18 hrs by microtiter broth dilution method; details: Lodderomyces parapsilosis, MTCC 1744, 18 h
[4] = system: Candida albicans; assay: Antifungal activity against Candida albicans MTCC 3017 after 18 hrs by microtiter broth dilution method; details: MTCC 3017, 18 h
[5] = system: Candida albicans; assay: Antifungal activity against Candida albicans MTCC 227 after 18 hrs by microtiter broth dilution method; details: MTCC 227, 18 h
[6] = system: Candida albicans; assay: Antifungal activity against Candida albicans MTCC 4748 after 18 hrs by microtiter broth dilution method; details: MTCC 4748, 18 h

Row | Structure (SMILES) | MIC [1] [µg/mL] | MIC [2] [µg/mL] | MIC [3] [µg/mL] | MIC [4] [µg/mL] | MIC [5] [µg/mL] | MIC [6] [µg/mL]
1 | CCCCCCCC(CCC(=O)O)OC (racemic) | 164 (≈ 758 µM) | 312 (≈ 1440 µM) | 625 (≈ 2890 µM) | 78 (≈ 361 µM) | 156 (≈ 721 µM) | 19 (≈ 87.8 µM)
2 | CCCCCCC[C@@H](CCC(=O)O)OC | 82 (≈ 379 µM) | 2500 (≈ 11600 µM) | 2500 (≈ 11600 µM) | 1250 (≈ 5780 µM) | 78 (≈ 361 µM) | 156 (≈ 721 µM)
3 | CCCCCCC(CCC(=O)O)OC (racemic) | 631 (≈ 3120 µM) | 1250 (≈ 6180 µM) | 5010 (≈ 24800 µM) | 5010 (≈ 24800 µM) | 625 (≈ 3090 µM) | 156 (≈ 771 µM)
4 | CCCCCCC[C@H](CCC(=O)O)OC | 168 (≈ 777 µM) | 312 (≈ 1440 µM) | – | 1250 (≈ 5780 µM) | 156 (≈ 721 µM) | 78 (≈ 361 µM)
5 | CCCCCC[C@H](CCC(=O)O)OC | 19 (≈ 93.9 µM) | 19 (≈ 93.9 µM) | 625 (≈ 3090 µM) | 312 (≈ 1540 µM) | 19 (≈ 93.9 µM) | 19 (≈ 93.9 µM)
6 | CCCCCC[C@@H](CCC(=O)O)OC | 1240 (≈ 6120 µM) | 312 (≈ 1540 µM) | 156 (≈ 771 µM) | 156 (≈ 771 µM) | 1250 (≈ 6180 µM) | 39 (≈ 193 µM)
7 | OC(Cn1cncn1)(Cn1cncn1)c1ccc(F)cc1F [FLUCONAZOLE] | 34 (≈ 111 µM) | 128 (≈ 418 µM) | 16 (≈ 52.2 µM) | 64 (≈ 209 µM) | 32 (≈ 104 µM) | 32 (≈ 104 µM)
